Laboratory results taken from patent US20250034116A1, “1,4-DIHETEROCYCLIC SUBSTITUTED AROMATIC RING OR AROMATIC HETEROCYCLIC COMPOUND AND USE THEREOF” (BeBetter Med Inc., priority 2022, published 2025).

What was measured:
[1] = test system: CYP enzymes in rat liver microsomes (RLM); assay: Inhibition of 20-HETE production in rat liver microsomes (RLM); format: biochemical
Procedure: (§1) Experimental principle: The inhibitory activity of 20-HETE production is evaluated by testing the inhibitory effects of the compound on human liver microsomes (HLM), rat liver microsomes (RLM), mouse liver microsomes (MLM), or […] CYP4 subtype enzymes (CYP4F2). This assay employs HLM, RLM, or MLM along with recombinant CYP4F2 (rCYP4F2) and recombinant CYP4A11 (rCYP4A11), which are […] CYP4 subtype enzymes, to detect the effects of the test compound at different concentrations on the metabolic rate of enzyme-specific substrates, to determine the inhibitory effects of the test compound on CYP enzymes in HLM, RLM, or MLM.
(§2) Experimental methods: Dissolve the test compound in DMSO, and subsequently dilute it with an acetonitrile and DMSO mixture (3:1). Add 2 μl of varying concentrations of the test compound and 100 μl of potassium phosphate buffer containing either liver microsomes or recombinant enzymes to a 96-well plate. After mixing well, transfer 30 μl to another well (in duplicate), add 15 μl of 400 μM substrate solution, and mix well again. Preheat at 37° C. for 10 minutes, and then add 15 μl of 6 mM NADPH and incubate at 37° C. for 25 minutes. After 25 minutes, add 160 μl of acetonitrile solution (containing 0.1 μg/ml internal standard) to stop the reaction. Mix well, centrifuge at 3500 g for 15 minutes, and then analyze the supernatant using LC-MS/MS.
(§3) Plot the compound concentration on the x-axis and the inhibition rate on the y-axis to draw the curve. Use GraphPad Prism 5 software to fit the curve and calculate the IC50. The formula is Y=Bottom+(Top−Bottom)/(1+10^((Log IC50−X)×HillSlope)). X represents the logarithmic concentration of the inhibitor, and Y represents the relative enzyme activity at a given inhibitor concentration (relative to the condition without the inhibitor).
(§4) Calculate the inhibition percentages at concentrations of 1000 nM, 500 nM, or 100 nM as well as the half-maximal inhibitory concentration (IC50) of the test compound from the above experiment.

[2] = test system: CYP enzymes in human liver microsomes (HLM); assay: Inhibition of 20-HETE production in human liver microsomes (HLM); format: biochemical
Procedure: as §1, §2, §3, §4

SMILES | RLM (% inh @ 500 nM) [1] | HLM (% inh @ 500 nM) [2] | IC50 [1] | IC50 [2]
O=C1CCCN1CC1CCN(c2ccc(-c3cc[nH]n3)c(F)c2F)CC1 [Compound 77, 1-((1-(2,3-difluoro-4-(1H-pyrazol-3-yl)phenyl)piperidin-4-yl)methyl)pyrrolidin-2-one] | 62.98% | 86.12% |  | 
O=C(NC1CCCC1)N1CCN(c2ccc(-c3cn[nH]c3)c(F)c2F)CC1 [Compound 89, N-cyclopentyl-4-(2,3-difluoro-4-(1H-pyrazol-4-yl)phenyl)piperazine-1-carboxamide] | 55.76% | 94.11% |  | 
O=C1CCCN1CC1CCN(c2ccc(-c3cn[nH]c3)cc2C(F)(F)F)CC1 [Compound 10, 1-((1-(4-(1H-pyrazol-4-yl)-2-(trifluoromethyl)phenyl)piperidin-4-yl)methyl)pyrrolidin-2-one] |  |  | 542 nM | 46.1 nM
O=C(C1CCCCC1)N1CCC(c2ccc(-c3cn[nH]c3)c(F)c2F)CC1 [Compound 97, cyclohexyl(4-(2,3-difluoro-4-(1H-pyrazol-4-yl)phenyl)piperidin-1-yl) methanone] |  | 95.80% | 25.4 nM | 25.6 nM
O=C1CCCN1CC1CCN(c2ccc(-c3cn[nH]c3)cc2CO)CC1 [Compound 17, 1-((1-(2-(hydroxymethyl)-4-(1H-pyrazol-4-yl)phenyl)piperidin-4-yl)methyl)pyrrolidin-2-one] | 17.66% | 65.27% |  | 
O=C(N1CCCC1)N1CCN(c2ccc(-c3cn[nH]c3)cc2F)CC1 [Compound 129, (4-(2-fluoro-4-(1H-pyrazol-4-yl)phenyl)piperazin-1-yl)(pyrrolidin-1-yl) methanone] | 74.89% | 89.94% |  | 
O=C(NC1CCCC1)C1CCN(c2ccc(-c3cn[nH]c3)cc2)CC1 [Compound 55, 1-(4-(1H-pyrazol-4-yl)phenyl)-N-cyclopentylpiperidine-4-carboxamide] | 21.92% | 62.73% |  | 
O=C1c2ccccc2CCN1CC1CCN(c2ccc(-c3cn[nH]c3)cc2)CC1 [Compound 42, 2-((1-(4-(1H-pyrazol-4-yl)phenyl)piperidin-4-yl)methyl)-3,4-dihydroisoquinolin-1(2H)-one] | 25.96% |  | 605 nM | 32.8 nM
C=CCCCCCC(=O)NCC1CCN(c2ccc(-c3cn[nH]c3)cc2)CC1 [Compound 115, N-((1-(4-(1H-pyrazol-4-yl)phenyl)piperidin-4-yl)methyl)oct-7-enamide] |  | 85.21% | 26.2 nM | 20.8 nM
O=C(NCC1CCCC1)N1CCN(c2ccc(-c3cn[nH]c3)c(F)c2F)CC1 [Compound 92, N-(cyclopentylmethyl)-4-(2,3-difluoro-4-(1H-pyrazol-4-yl)phenyl)piperazine-1-carboxamide] | 77.48% | 94.83% |  | 26.4 nM
O=C(N1CCCC1)N1CC2CCC(C1)N2c1ccc(-c2cn[nH]c2)c(F)c1F [Compound 128, (8-(2,3-difluoro-4-(1H-pyrazol-4-yl)phenyl)-3,8-diazabicyclo[3.2.1]octan-3-yl)(pyrrolidin-1-yl) methanone] | 62.11% | 89.99% |  | 
CC(=O)NCC1CCN(c2ccc(-c3cn[nH]c3)cc2)CC1 [Compound 43, N-((1-(4-(1H-pyrazol-4-yl)phenyl)piperidin-4-yl)methyl) acetamide] | 31.42% | 61.30% |  | 
N#Cc1cc(-c2cn[nH]c2)ccc1N1CCC(CN2CCCC2=O)CC1 [Compound 13, 2-(4-((2-oxopyrrolidin-1-yl)methyl)piperidin-1-yl)-5-(1H-pyrazol-4-yl)benzonitrile] | −4.72% | 58.98% |  | 
Clc1ccc(CC2CCN(c3ccc(-c4cn[nH]c4)cc3)CC2)cc1 [Compound 41, 1-(4-(1H-pyrazol-4-yl)phenyl)-4-(4-chlorobenzyl)piperidine] | 15.76% | 57.77% |  | 
O=C(C1CCCC1)N1CCC(c2c(F)cc(-c3cn[nH]c3)cc2F)CC1 [Compound 99, cyclopentyl(4-(2,6-difluoro-4-(1H-pyrazol-4-yl)phenyl)piperidin-1-yl) methanone] | 74.05% | 96.13% |  | 
O=C1CCCN1CC1C2CN(c3ccc(-c4cn[nH]c4)cc3)CC12 (stereo not drawn) [Compound 125, 1-((3-(4-(1H-pyrazol-4-yl)phenyl)-3-azabicyclo[3.1.0]hexan-6-yl)methyl)pyrrolidin-2-one] | 34.82% | 94.93% |  | 
O=C1CCCN1CC1CCN(c2cc(F)c(-c3cn[nH]c3)cc2F)CC1 [Compound 6, 1-((1-(2,5-difluoro-4-(1H-pyrazol-4-yl)phenyl)piperidin-4-yl)methyl)pyrrolidin-2-one] | 23.02% | 67.30% |  | 
O=C1CCCCC1C(=O)N1CCC(c2ccc(-c3cn[nH]c3)c(F)c2F)CC1 (stereo not drawn) [Compound 109, 2-(4-(2,3-difluoro-4-(1H-pyrazol-4-yl)phenyl)piperidine-1-carbonyl)cyclohexane-1-one] | 68.22% | 74.67% |  | 

Now from value to molecule:

RLM (% inh @ 500 nM) [1] | HLM (% inh @ 500 nM) [2] | IC50 [1] | IC50 [2] | SMILES
43.82% | 76.97% |  |  | O=C(NC1CCN(c2ccc(-c3cn[nH]c3)cc2)CC1)C1CCCC1 [Compound 69, N-(1-(4-(1H-pyrazol-4-yl)phenyl)piperidin-4-yl)cyclopentanecarboxamide]
73.06% | 92.79% | 148 nM |  | O=C(NCc1ccccc1)N1CCN(c2ccc(-c3cn[nH]c3)c(F)c2F)CC1 [Compound 94, N-benzyl-4-(2,3-difluoro-4-(1H-pyrazol-4-yl)phenyl)piperazine-1-carboxamide]
26.43% | 57.83% |  |  | O=C(CCCCCO)NCC1CCN(c2ccc(-c3cn[nH]c3)cc2)CC1 [Compound 45, N-((1-(4-(1H-pyrazol-4-yl)phenyl)piperidin-4-yl)methyl)-6-hydroxyhexanamide]
26.22% | 52.40% |  |  | c1cc(N2CCC(CN3CCCC3)CC2)ccc1-c1cn[nH]c1 [Compound 40, 1-(4-(1H-pyrazol-4-yl)phenyl)-4-(pyrrolidin-1-ylmethyl)piperidine]
8.61% | 47.87% |  |  | COC(=O)c1cc(-c2cn[nH]c2)ccc1N1CCC(CN2CCCC2=O)CC1 [Compound 18, methyl 2-(4-((2-oxopyrrolidin-1-yl)methyl)piperidin-1-yl)-5-(1H-pyrazol-4-yl)benzoate]
75.79% | 87.83% | 116 nM |  | O=S(=O)(C1CCCCC1)N1CCC(c2ccc(-c3cn[nH]c3)cc2F)CC1 [Compound 119, 1-(cyclohexylsulfonyl)-4-(2-fluoro-4-(1H-pyrazol-4-yl)phenyl)piperidine]
29.56% | 65.78% |  |  | O=C1CCCN1C1CCN(c2ccc(-c3cn[nH]c3)cc2)CC1 [Compound 73, 1-(1-(4-(1H-pyrazol-4-yl)phenyl)piperidin-4-yl) pyrrolidin-2-one]
54.89% | 85.59% |  |  | C#CCCCCCC(=O)NCC1CCN(c2ccc(-c3cn[nH]c3)cc2)CC1 [Compound 114, N-((1-(4-(1H-pyrazol-4-yl)phenyl)piperidin-4-yl)methyl)oct-7-ynamide]
77.16% | 92.84% |  |  | O=C(C1CCCC1)N1CCC(c2ccc(-c3cn[nH]c3)cc2F)CC1 [Compound 138, cyclopentyl(4-(2-fluoro-4-(1H-pyrazol-4-yl)phenyl)piperidin-1-yl) methanone]
32.02% | 81.26% | 995 nM |  | O=C(C1CCN(c2ccc(-c3cn[nH]c3)cc2)CC1)N1CCCCC1 [Compound 54, (1-(4-(1H-pyrazol-4-yl)phenyl)piperidin-4-yl)(piperidin-1-yl) methanone]
61.73% | 94.96% | 341 nM | 19.4 nM | O=C(NCc1ccccc1)C1CCN(c2ccc(-c3cn[nH]c3)c(F)c2F)CC1 [Compound 95, N-benzyl-1-(2,3-difluoro-4-(1H-pyrazol-4-yl)phenyl)piperidine-4-carboxamide]
40.73% | 80.70% |  |  | O=C1CCCN1CC1CCN(c2ccc(-c3cc[nH]n3)cc2F)CC1 [Compound 76, 1-((1-(2-fluoro-4-(1H-pyrazol-3-yl)phenyl)piperidin-4-yl)methyl)pyrrolidin-2-one]
